Measurements: publication PMC9024523, “Phenoxyaromatic Acid Analogues as Novel Radiotherapy Sensitizers: Design, Synthesis and Biological Evaluation” (Molecules, 2022)
Where “and” joins values, the source holds several entries; their conditions need not be identical. Identical values can stand only once.

Test system: mouse red blood cells
Test: In vitro red blood cell-based assay (oxygen equilibrium curve, Softron analyzer)
Conditions: final effector concentration 2 mM, mean ± SD; for P50/P50C: P50C = control with 1% DMSO; for P50: 1% DMSO; for P50 / ∆P50: mouse red blood cells; for ∆P50: ∆P50 = P50 − P50C
Excerpt: In the first stage of our research, three series of analogues were designed and synthesized to explore refinement of the hydrophobic parts of 19f, 19m, 24a and 24b; hinge areas of 18g, 19b and 19y; and tail regions of 15c, 15d and 16c, respectively. We used the Softron Analyzer to evaluate the effect of these compounds on the half-blood oxygen saturation(P50) value of red blood cells. The most promising phenoxyaromatic acid compound, efaproxiral, was used as a positive control. […] The results reminded us that the modification of the hydrophobic part or linker extension is beneficial to improve an allosteric effect.
Eight-week-old female C57BL6J mice were purchased from Beijing Vital River Laboratory Animal Technology Co., Ltd. A total of 540 μL mouse blood was added into the 1.5 mL centrifuge tube, followed by adding 60 μL 3.8% sodium citrate. The mixture was then centrifuged at 1500 rpm for 10 min, the supernatant was carefully aspirated, and the cells were washed three times with PBS solution. After mixing packed red blood cells with Alsever’s solution in a ratio of 1:1, a blood gas analyzer (RADIOMETER ABL 90) was used to analyze the red blood cell density and hemoglobin concentration.
All of the compounds were prepared as 200 mM stock solutions in DMSO. Oxygen equilibrium measurements were performed with the Softron analyzer (Softron Medical Products, Beijing, China) using mouse red blood cells. The samples were prepared by adding 3 mg hemoglobin equivalent of red blood cells into 3.92 mL loading buffer (100 mM NaCl, 50 mM bis-Tris at pH 7.2 and 25 °C), followed by 20 μL 10% Dimethicone as a defoamer and 20 μL 20% BSA. Afterwards, 40 μL stock solution was added, and the mixture was loaded to the sample cell and fully deoxygenated by blowing into nitrogen at 37 °C for 15 min. Then, the oxygen equilibrium curve was recorded by blowing into oxygen.

Compound | P50/P50C | P50 [mmHg] | K (Hill coefficient of the oxygen dissociation curve at 50% saturation) | ∆P50 | ∆P50 (listed as 190) [mmHg]
2-(4-(1-((3,5-dimethylphenyl)carbamoyl)cyclopropyl)phenoxy)-2-methylpropanoic acid [19e] | 1.10 ± 0.04 | 46.24 ± 7.09 | 2.40 ± 0.12 | 4.41 ± 2.27 mmHg | –
2-(4-(2-((3-bromo-5-chlorophenyl)amino)ethyl)phenoxy)-2-methylpropanoic acid [18b] | 1.10 ± 0.03 | 42.61 ± 2.15 | 2.19 ± 0.01 | 3.66 ± 0.88 mmHg | –
2-(4-(2-([1,1′-biphenyl]-4-ylamino)ethyl)phenoxy)-2-methylpropanoic acid [18e] | 1.15 ± 0.37 | 51.84 ± 16.79 | 2.28 ± 0.28 | 6.60 ± 16.79 mmHg | –
2-methyl-2-(4-(2-(naphthalen-2-ylamino)ethyl)phenoxy)propanoic acid [18f] | 1.72 ± 0.03 | 79.24 ± 1.61 | 1.89 ± 0.13 | 33.13 ± 1.61 mmHg | –
2-methyl-2-(4-(2-oxo-2-(o-tolylamino)ethyl)phenoxy)propanoic acid [19f] | 1.17 ± 0.04 | 53.78 ± 1.94 | 2.26 ± 0.11 | 7.72 ± 1.87 mmHg | –
7-(2-((3,5-dimethylphenyl)amino)-2-oxoethyl)-2,3-dihydrobenzo[b][1,4]dioxine-2-carboxylic acid [compound 20] | 1.12 ± 0.06 | 47.11 ± 8.08 | 2.39 ± 0.16 | 5.27 ± 3.27 mmHg | –
CCOC(=O)CCCOc1ccc(CC(=O)Nc2cc(C)cc(C)c2)cc1 [15a, Ethyl 4-(4-(2-((3,5-dimethylphenyl)amino)-2-oxoethyl)phenoxy)butanoate] | 0.96 ± 0.25 | 43.55 ± 11.21 | – | −1.70 ± 11.21 mmHg | –
COC(=O)C(Oc1ccc(CC(=O)Nc2cc(C)cc(C)c2)cc1)c1ccccc1 (stereo not shown) [15b, Methyl2-(4-(2-((3,5-dimethylphenyl)amino)-2-oxoethyl)phenoxy)-2-phenylacetate] | 1.28 ± 0.19 | 57.82 ± 8.69 | – | 12.58 ± 8.69 mmHg | –
COC(=O)C(C)(C)Oc1ccc(CC(=O)Nc2cc(C)cc(C)c2)cc1 [15c, Methyl2-(4-(2-((3,5-dimethylphenyl)amino)-2-oxoethyl)phenoxy)-2methylpropanoate] | 0.96 ± 0.26 | 43.28 ± 11.71 | – | −1.96 ± 11.71 mmHg | –
Cc1cc(C)cc(NC(=O)Cc2ccc(OCCCC(=O)O)cc2)c1 [16a, 4-(4-(2-((3,5-dimethylphenyl)amino)-2-oxoethyl)phenoxy)butanoic acid] | 1.18 ± 0.04 | 53.49 ± 1.85 | – | 8.25 ± 1.85 mmHg | –
Cc1cc(C)cc(NCCCc2ccc(OC(C)(C)C(=O)O)cc2)c1 [18a, 2-(4-(3-((3,5-dimethylphenyl)amino)propyl)phenoxy)-2-methylpropanoic acid] | 1.41 ± 0.03 | 77.19 ± 5.93 | – | 22.54 ± 2.74 mmHg | –
CSc1cccc(NCCc2ccc(OC(C)(C)C(=O)O)cc2)c1 [18c, 2-methyl-2-(4-(2-((3-(methylthio)phenyl)amino)ethyl)phenoxy)propanoic acid] | 1.28 ± 0.07 | 48.61 ± 4.43 | – | 10.7 ± 2.95 mmHg | –
C#Cc1cccc(NCCc2ccc(OC(C)(C)C(=O)O)cc2)c1 [18d, 2-(4-(2-((3-ethynylphenyl)amino)ethyl)phenoxy)-2-methylpropanoic acid] | 1.15 ± 0.05 | 52.25 ± 2.32 | – | 7.01 ± 2.32 mmHg | –
Cc1cc(C)cc(NCCc2ccc(OC(C)(C)C(=O)O)cc2)c1 [18g, 2-(4-(2-((3,5-dimethylphenyl)amino)ethyl)phenoxy)-2-methylpropanoic acid] | 1.86 ± 0.05 | 77.54 ± 6.96 | – | 35.71 mmHg and 35.71 ± 2.14 mmHg | –
Cc1cc(C)cc(NC(=O)c2ccc(OC(C)(C)C(=O)O)cc2)c1 [19b, 2-(4-((3,5-dimethylphenyl)carbamoyl)phenoxy)-2-methylpropanoic acid] | 1.04 ± 0.05 | 43.01 ± 2.18 | – | 1.82 ± 2.18 mmHg | –
Cc1cc(C)cc(NC(=O)CCCc2ccc(OC(C)(C)C(=O)O)cc2)c1 [19d, 2-(4-(4-((3,5-dimethylphenyl)amino)-4-oxobutyl)phenoxy)-2-methylpropanoic acid] | 1.60 ± 0.02 | 67.93 ± 8.80 | – | 25.43 ± 3.71 mmHg | –
CC(C)(Oc1ccc(CC(=O)Nc2cc(Br)cc(Br)c2)cc1)C(=O)O [19h, 2-(4-(2-((3,5-dibromophenyl)amino)-2-oxoethyl)phenoxy)-2-methylpropanoic acid] | 1.87 ± 0.03 | 68.71 ± 1.18 | – | 31.90 ± 1.18 mmHg | –
CC(C)(Oc1ccc(CC(=O)Nc2cccc(I)c2)cc1)C(=O)O [19i, 2-(4-(2-((3-iodophenyl)amino)-2-oxoethyl)phenoxy)-2-methylpropanoic acid] | 1.91 ± 0.13 | 86.61 ± 6.04 | – | 41.37 mmHg and 41.37 ± 6.04 mmHg | –
CC(C)(Oc1ccc(CC(=O)Nc2cc(Cl)cc(Br)c2)cc1)C(=O)O [19j, 2-(4-(2-((3-. bromo-5-chlorophenyl)amino)-2-oxoethyl)phenoxy)-2-methylpropanoic acid] | 1.82 ± 0.02 | 82.35 ± 0.80 | – | 37.11 ± 0.80 mmHg | –
CC(C)(Oc1ccc(CC(=O)Nc2ccccc2Br)cc1)C(=O)O [19k, 2-(4-(2-((2-bromophenyl)amino)-2-oxoethyl)phenoxy)-2-methylpropanoic acid] | 1.34 ± 0.29 | 49.17 ± 10.7 | – | 12.36 ± 10.79 mmHg | –
Cc1cccc(NC(=O)Cc2ccc(OC(C)(C)C(=O)O)cc2)c1Br [19l, 2-(4-(2-((2-bromo-3-methylphenyl)amino)-2-oxoethyl)phenoxy)-2-methylpropanoic acid] | 1.56 ± 0.04 | 70.41 ± 1.68 | – | 25.17 ± 1.68 mmHg | –
CSc1ccc(NC(=O)Cc2ccc(OC(C)(C)C(=O)O)cc2)cc1 [19m, 2-methyl-2-(4-(2-((4-(methylthio)phenyl)amino)-2-oxoethyl)phenoxy)propanoic acid] | 1.80 ± 0.02 | 74.24 ± 0.69 | – | 33.05 mmHg and 33.05 ± 0.69 mmHg | –
CSc1cccc(NC(=O)Cc2ccc(OC(C)(C)C(=O)O)cc2)c1 [19m-1, 2-methyl-2-(4-(2-((3-(methylthio)phenyl)amino)-2-oxoethyl)phenoxy)propanoic acid] | 1.81 ± 0.02 | 81.67 ± 0.95 | – | 36.43 mmHg and 36.43 ± 0.95 mmHg | –
C#Cc1ccc(NC(=O)Cc2ccc(OC(C)(C)C(=O)O)cc2)cc1 [19n, 2-(4-(2-((4-ethynylphenyl)amino)-2-oxoethyl)phenoxy)-2-methylpropanoic acid] | 1.46 ± 0.02 | 60.34 ± 0.70 | – | 19.15 mmHg and 19.15 ± 0.70 mmHg | –
C#Cc1cccc(NC(=O)Cc2ccc(OC(C)(C)C(=O)O)cc2)c1 [19n-1, 2-(4-(2-((3-ethynylphenyl)amino)-2-oxoethyl)phenoxy)-2-methylpropanoic acid] | 1.79 ± 0.04 | 80.97 ± 1.77 | – | 38.73 mmHg and 38.73 ± 2.47 mmHg | –
CC(C)(Oc1ccc(CC(=O)Nc2ccc(-c3ccccc3)cc2)cc1)C(=O)O [19o, 2-(4-(2-([1,1′-biphenyl]-4-ylamino)-2-oxoethyl)phenoxy)-2-methylpropanoic acid] | 1.81 ± 0.04 | 74.56 ± 1.75 | – | 33.37 mmHg | 33.37 ± 1.75
CC(C)(Oc1ccc(CC(=O)Nc2cccc(-c3ccccc3)c2)cc1)C(=O)O [19p, 2-(4-(2-([1,1′-biphenyl]-3-ylamino)-2-oxoethyl)phenoxy)-2-methylpropanoic acid] | 1.87 ± 0.02 | 77.10 ± 0.66 | – | 35.91 mmHg and 35.91 ± 0.66 mmHg | –
CC(C)(Oc1ccc(CC(=O)Nc2ccc(C#N)cc2)cc1)C(=O)O [19q, 2-(4-(2-((4-cyanophenyl)amino)-2-oxoethyl)phenoxy)-2-methylpropanoic acid] | 1.32 ± 0.30 | 59.60 ± 13.58 | – | 14.36 ± 13.58 mmHg | –
